The text below walks through data of ChEMBL document CHEMBL5608161, “Identification of 4-(6-((2-methoxyphenyl)amino)pyrazin-2-yl)benzoic acids as CSNK2A inhibitors with antiviral activity and improved selectivity over PIM3” (Bioorg Med Chem Lett, 2024).

The source made the active and inactive calls. The rule behind the calls is not given here.

In one assay the test system is Murine hepatitis virus. The assay is described as follows: microbe, parasite or virus in culture. As to conditions: Murine coronavirus, DB.
Another assay in a line: cells. As to conditions: Homo sapiens, HEK293.
The next assay concerns HEK293. The assay is described as follows: Inhibition of Nano Luc-fused CSNK2A (unknown origin) expressed in HEK293 cells using NanoGlo as substrate at 10 uM by NanoBRET In-cell target engagement assay. It counts as cell-based. As to conditions: Homo sapiens. On the technique in general: BRET reads energy transfer from a luciferase to a nearby fluorophore.
Assay [1] has as its target T1, Mitogen-activated protein kinase 15 (Homo sapiens) (UniProt Q8TD08).
T1 sequence (whole entry): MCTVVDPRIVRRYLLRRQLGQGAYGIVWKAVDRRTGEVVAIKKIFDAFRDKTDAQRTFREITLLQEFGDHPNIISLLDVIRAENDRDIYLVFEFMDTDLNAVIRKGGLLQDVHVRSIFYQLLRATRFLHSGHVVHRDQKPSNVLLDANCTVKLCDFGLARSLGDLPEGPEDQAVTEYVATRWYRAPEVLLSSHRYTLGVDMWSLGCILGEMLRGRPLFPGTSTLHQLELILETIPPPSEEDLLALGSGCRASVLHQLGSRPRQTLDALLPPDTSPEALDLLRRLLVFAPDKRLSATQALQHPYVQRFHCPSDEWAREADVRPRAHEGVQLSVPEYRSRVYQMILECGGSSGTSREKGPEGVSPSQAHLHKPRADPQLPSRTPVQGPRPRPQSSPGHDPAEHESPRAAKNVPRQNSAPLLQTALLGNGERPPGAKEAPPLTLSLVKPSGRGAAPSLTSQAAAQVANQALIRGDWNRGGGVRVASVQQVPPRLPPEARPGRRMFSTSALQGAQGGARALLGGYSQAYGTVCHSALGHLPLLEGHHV
The assay is described as follows: Binding affinity to MAPK15 (unknown origin) assessed as melting temperature by thermal shift assay.

The target of assay [2] is T2, Dual specificity tyrosine-phosphorylation-regulated kinase 2 (Homo sapiens) (UniProt Q92630).
T2 sequence (whole entry): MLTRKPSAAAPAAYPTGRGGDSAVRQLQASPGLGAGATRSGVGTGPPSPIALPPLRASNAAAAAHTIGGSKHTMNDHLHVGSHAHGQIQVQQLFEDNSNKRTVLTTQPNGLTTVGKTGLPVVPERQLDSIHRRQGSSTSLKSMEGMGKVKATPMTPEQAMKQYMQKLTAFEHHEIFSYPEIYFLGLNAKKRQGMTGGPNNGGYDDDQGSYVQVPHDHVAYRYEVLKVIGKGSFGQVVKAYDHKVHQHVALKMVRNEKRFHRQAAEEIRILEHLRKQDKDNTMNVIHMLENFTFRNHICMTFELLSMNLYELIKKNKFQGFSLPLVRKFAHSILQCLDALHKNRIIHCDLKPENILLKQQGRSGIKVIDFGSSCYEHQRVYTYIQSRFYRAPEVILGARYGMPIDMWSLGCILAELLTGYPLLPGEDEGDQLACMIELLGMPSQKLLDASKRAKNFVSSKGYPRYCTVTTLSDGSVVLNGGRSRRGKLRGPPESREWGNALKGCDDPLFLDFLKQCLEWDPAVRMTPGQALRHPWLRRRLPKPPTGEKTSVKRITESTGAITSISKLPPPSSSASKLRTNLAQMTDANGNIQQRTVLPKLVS
The assay can be described thus: Binding affinity to DYRK2 (unknown origin) assessed as melting temperature by thermal shift assay.

Assay [3] has as its target BMP-2-inducible protein kinase (Homo sapiens) (UniProt Q9NSY1). The assay can be described thus: Binding affinity to BIKE (unknown origin) assessed as melting temperature by thermal shift assay.
In assay [4] the target is Serine/threonine-protein kinase pim-1 (Homo sapiens) (UniProt P11309). The assay can be described thus: Binding affinity to PIM1 (unknown origin) assessed as melting temperature by thermal shift assay.
Assay [5] concerns the target Death-associated protein kinase 3 (Homo sapiens) (UniProt O43293). The assay is described as follows: Binding affinity to DAPK3 (unknown origin) assessed as melting temperature by thermal shift assay.

Sequence of Death-associated protein kinase 3 (Homo sapiens) (O43293 whole entry, looked up): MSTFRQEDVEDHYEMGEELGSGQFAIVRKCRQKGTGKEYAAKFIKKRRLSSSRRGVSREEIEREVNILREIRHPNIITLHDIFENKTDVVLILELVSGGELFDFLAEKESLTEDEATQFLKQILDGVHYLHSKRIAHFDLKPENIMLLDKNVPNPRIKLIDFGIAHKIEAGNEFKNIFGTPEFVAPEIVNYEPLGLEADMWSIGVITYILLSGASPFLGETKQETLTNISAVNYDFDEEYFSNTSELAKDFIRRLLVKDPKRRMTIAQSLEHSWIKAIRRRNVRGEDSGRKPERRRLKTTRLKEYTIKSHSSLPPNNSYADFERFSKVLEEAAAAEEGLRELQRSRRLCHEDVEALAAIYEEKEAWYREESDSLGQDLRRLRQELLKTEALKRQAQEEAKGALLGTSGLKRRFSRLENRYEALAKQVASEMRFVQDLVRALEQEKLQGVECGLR
Sequence of Serine/threonine-protein kinase pim-1 (Homo sapiens) (P11309 whole entry, looked up): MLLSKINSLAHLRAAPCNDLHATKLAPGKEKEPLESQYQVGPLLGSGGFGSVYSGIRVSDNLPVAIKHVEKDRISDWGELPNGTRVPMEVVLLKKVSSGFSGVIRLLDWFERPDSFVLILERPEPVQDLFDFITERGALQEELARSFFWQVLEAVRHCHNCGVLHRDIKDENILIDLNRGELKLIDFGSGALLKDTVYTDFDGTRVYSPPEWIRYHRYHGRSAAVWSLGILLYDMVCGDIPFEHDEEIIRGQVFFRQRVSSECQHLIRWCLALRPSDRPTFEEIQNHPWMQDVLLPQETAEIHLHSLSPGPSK
Sequence of BMP-2-inducible protein kinase (Homo sapiens) (Q9NSY1 whole entry, looked up): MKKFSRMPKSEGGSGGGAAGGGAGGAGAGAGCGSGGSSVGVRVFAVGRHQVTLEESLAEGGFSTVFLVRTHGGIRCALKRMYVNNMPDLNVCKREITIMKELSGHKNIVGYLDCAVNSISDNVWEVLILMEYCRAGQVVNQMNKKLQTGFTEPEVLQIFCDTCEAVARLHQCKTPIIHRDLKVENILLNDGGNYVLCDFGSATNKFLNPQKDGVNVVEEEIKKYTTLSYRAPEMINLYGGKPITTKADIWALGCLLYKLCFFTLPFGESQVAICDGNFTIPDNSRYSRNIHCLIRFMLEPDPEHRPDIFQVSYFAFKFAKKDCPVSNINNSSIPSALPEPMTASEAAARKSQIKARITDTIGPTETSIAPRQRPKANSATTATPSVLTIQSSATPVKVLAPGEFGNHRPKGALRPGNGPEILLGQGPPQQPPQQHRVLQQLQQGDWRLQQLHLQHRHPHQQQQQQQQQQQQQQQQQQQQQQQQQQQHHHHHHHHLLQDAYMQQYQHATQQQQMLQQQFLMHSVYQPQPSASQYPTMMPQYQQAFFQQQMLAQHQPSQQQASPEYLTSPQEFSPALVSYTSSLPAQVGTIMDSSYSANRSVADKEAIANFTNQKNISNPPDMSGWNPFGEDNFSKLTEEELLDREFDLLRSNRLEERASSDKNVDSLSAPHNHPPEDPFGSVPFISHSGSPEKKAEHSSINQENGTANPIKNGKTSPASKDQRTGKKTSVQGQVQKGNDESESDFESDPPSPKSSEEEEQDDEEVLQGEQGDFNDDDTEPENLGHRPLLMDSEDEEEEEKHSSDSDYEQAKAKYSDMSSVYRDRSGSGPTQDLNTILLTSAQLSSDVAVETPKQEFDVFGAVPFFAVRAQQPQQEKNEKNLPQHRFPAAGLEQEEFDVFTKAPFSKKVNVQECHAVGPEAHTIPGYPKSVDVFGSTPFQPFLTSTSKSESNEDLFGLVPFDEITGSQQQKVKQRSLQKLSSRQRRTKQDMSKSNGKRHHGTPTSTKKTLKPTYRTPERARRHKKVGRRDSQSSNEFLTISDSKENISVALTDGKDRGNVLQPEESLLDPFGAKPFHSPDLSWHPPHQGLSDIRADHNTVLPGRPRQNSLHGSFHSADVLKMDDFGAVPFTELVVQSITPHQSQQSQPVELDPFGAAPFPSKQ
Description for Murine hepatitis virus: Antiviral activity against MHV expressing nLuc infected in human DB cells assessed as inhibition of viral replication
Description for cells: Inhibition of Nano Luc-fused CSNK2A (unknown origin) expressed in HEK293 cells using NanoGlo as substrate by NanoBRET In-cell target engagement assay

As for `CC(C)C(=O)OC[C@H]1O[C@@H](n2cc/c(=N\O)[nH]c2=O)[C@H](O)[C@@H]1O` [MOLNUPIRAVIR], the IC50 (in general, the concentration needed to halve the response being measured) in the assay with Murine hepatitis virus came out at 1.4 µM.

In the assay “cells”, `CC(=O)Nc1ccc2cnn(-c3cncc(-c4ccc(C(=O)O)cc4)n3)c2c1` showed an IC50 of 4.02 µM. As for `COc1cc(-c2cncc(-n3ncc4ccc(NC(C)C)cc43)n2)ccc1C(=O)O`, in the assay with HEK293, the inhibition result was “inactive”.

In “cells”, `O=C(O)c1ccc(-c2cncc(-n3ncc4ccc(NC5CCCC5)cc43)n2)cc1` gave an IC50 of 2.2 µM. On to `COc1ccc(OC(C)C)cc1Nc1cncc(-c2ccc(C(=O)O)cc2)n1`, for which the Tm in assay [1], in assay [2], in assay [3], in assay [4] and in assay [5] was greater than 9 °C each time.

Take `CC(C)Nc1ccc2cnn(-c3cncc(-c4ccc(C(N)=O)cc4)n3)c2c1`: the inhibition entry in the assay on HEK293 was “inactive”. Take `O=C(O)c1ccc(-c2cncc(-n3ncc4ccc(NCCN5CCOCC5)cc43)n2)cc1`: in the assay “cells”, half-maximal inhibition (IC50) was put at 2.6 µM. `CC(C)Nc1ccc2cnn(-c3cncc(-c4ccc(C(=O)O)c(Cl)c4)n3)c2c1` displayed an IC50 in the assay “cells” of 0.26 µM. For the compound `CC(C)Nc1ccc2cnn(-c3cncc(-c4ccc(S(N)(=O)=O)cc4)n3)c2c1`, in the assay on HEK293, the inhibition result is “inactive”.
